Where only a bound is given, the exact number is not on record here.

Broadly, the CC50 is the concentration that lowers cell viability or growth by half.

The first assay has as its system HCT116 MTAP-deleted cell lines. Description: Cell viability assay (CellTiter-Glo, 7 days), HCT116 MTAP-deleted. The format is cell-based. The note with it: Homo sapiens, HCT-116; cell viability assay, HCT116 MTAP-deleted; class symbols; read-out: CC50. Put shortly: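 HCT116 MTAP-deleted and wild-type cells exposed to serially diluted compound for 7 days at 37 °C, 5% CO2. Viability read by CellTiter-Glo luminescence; CC50 derived per line, with selectivity comparing WT to MTAP-deleted, limited solubility can inflate values marked *.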
Consider `[2H]C([2H])([2H])[C@@H]1CN(C(=O)c2cc3c(cc2F)nc(N)c2cncn23)[C@H]2c3ccc(C(F)(F)F)cc3C[C@H]2O1` (single isomer, unassigned) [Ff-638], for which the CC50 is less than 100 nM.
The same measure, in the same setting: for `[2H]C([2H])([2H])[C@H]1CN(C(=O)c2cc3c(cc2F)nc(N)c2cncn23)[C@H]2c3ccc(C(F)(F)F)cc3C[C@H]2O1` (single isomer, unassigned) [Ff-639] the value was less than 100 nM.
On the same count and under the same terms, to `Nc1nc2cc(F)c(C(=O)N3CCC[C@@H]4Oc5cc(C(F)(F)F)ccc5[C@@H]43)cc2n2c(Cl)ncc12` (single isomer, unassigned) [Ff-646] belongs less than 100 nM; to `Nc1nc2cc(F)c(C(=O)N3CCC[C@@H]4Oc5cc(C(F)(F)F)ccc5[C@@H]43)cc2n2cnc(Cl)c12` (single isomer, unassigned) [Ff-647], less than 100 nM; to `C[C@@H]1CN(C(=O)c2cc3c(cc2F)nc(N)c2cncn23)[C@@H](c2cccc(C(F)F)n2)CO1` (single isomer, unassigned) [Ff-668], 100 to 1000 nM.
As to `Cc1ncn2c1c(N)nc1ccc(C(=O)N3C[C@@H](C)O[C@@H]4Cc5cc(OC(F)(F)F)ccc5[C@@H]43)cc12` (single isomer, unassigned) [Fg-22], the 50% cytotoxic concentration (CC50) was less than 100 nM.
Same read-out and setting: to `Cc1ncn2c1c(N)nc1ccc(C(=O)N3C[C@H](C)O[C@@H]4Cc5cc(OC(F)(F)F)ccc5[C@@H]43)cc12` (single isomer, unassigned) [Fg-23] belongs less than 100 nM.

Staying with this assay, now noted: Homo sapiens, HCT-116; cell viability, HCT116 MTAP-deleted; class symbols; read-out: CC50.
For `CN(C(=O)c1cc2c(cc1F)nc(N)c1cncn12)[C@@H]1COc2ccc([C@H]3C[C@@H]3C#N)cc21` (stereo in doubt) [Ff-263, Trans-4-amino-N-((3S)-5-(2-cyanocyclopropyl)-2,3-dihydrobenzofuran-3-yl)-7-fluoro-N-methylimidazo[1,5-a]quinoxaline-8-carboxamide], the half-maximal cytotoxic concentration (CC50) fell in the range of 100 to 1000 nM.
Turning to `CN(C(=O)C1CC1)N(Cc1cc(F)c(F)cc1F)C(=O)c1cc2c(cc1F)nc(N)c1cncn12` [Fa-8, 4-amino-N′-(cyclopropanecarbonyl)-7-fluoro-N′-methyl-N-(2,4,5-trifluorobenzyl)imidazo[1,5-a]quinoxaline-8-carbohydrazide], the CC50 was less than 100 nM.
Regarding `CC(=O)N(C)N(Cc1ccc(C(F)(F)F)cc1Cl)C(=O)c1cc2c(cc1F)nc(N)c1cncn12` [Fb-1, N′-acetyl-4-amino-N-(2-chloro-4-(trifluoromethyl)benzyl)-7-fluoro-N′-methylimidazo[1,5-a]quinoxaline-8-carbohydrazide], the cytotoxic concentration (CC50) is less than 100 nM.
On to `Cn1c(CN(C(=O)c2cc3c(cc2F)nc(N)c2cncn23)N2CCCC2=O)nc2cc(C(F)(F)F)ccc21` [Fb-7, 4-amino-7-fluoro-N-((1-methyl-5-(trifluoromethyl)-1H-benzo[d]imidazol-2-yl)methyl)-N-(2-oxopyrrolidin-1-yl)imidazo[1,5-a]quinoxaline-8-carboxamide], for which the CC50 was less than 100 nM.
In the case of `CN(C(=O)c1cc2c(cc1F)nc(N)c1cncn12)[C@@H](c1ccc(C(F)(F)F)cc1)C(F)F` [Fb-9, (S)-4-amino-N-(2,2-difluoro-1-(4-(trifluoromethyl)phenyl)ethyl)-7-fluoro-N-methylimidazo[1,5-a]quinoxaline-8-carboxamide], the CC50 is less than 100 nM.
Take `CN(C(=O)c1cc2c(cc1F)nc(N)c1cncn12)[C@@H](c1ccc(OC(F)F)cc1F)C(F)F` [Fb-10, (S)-4-amino-N-(1-(4-(difluoromethoxy)-2-fluorophenyl)-2,2-difluoroethyl)-7-fluoro-N-methylimidazo[1,5-a]quinoxaline-8-carboxamide]: the cytotoxic concentration (CC50) was less than 100 nM.
On the same count and under the same terms, for `CN(C(=O)c1cc2c(cc1F)nc(N)c1cncn12)[C@@H](c1ccc(OC(F)(F)F)cc1F)C(F)F` [Fb-11, (S)-4-amino-N-(2,2-difluoro-1-(2-fluoro-4-(trifluoromethoxy)phenyl)ethyl)-7-fluoro-N-methylimidazo[1,5-a]quinoxaline-8-carboxamide] the value was less than 100 nM; for `CN(C(=O)c1cc2c(cn1)nc(N)c1cncn12)[C@@H](c1ccc(OC(F)(F)F)cc1F)C(F)F` [Fb-12, (S)-4-amino-N-(2,2-difluoro-1-(2-fluoro-4-(trifluoromethoxy)phenyl)ethyl)-N-methylimidazo[1,5-a]pyrido[3,4-e]pyrazine-8-carboxamide], 100 to 1000 nM; for `CN(C(=O)c1cc2c(cc1F)nc(N)c1cncn12)[C@@H](c1ccc(OC(F)(F)F)cc1)C(F)F` [Fb-13, (S)-4-amino-N-(2,2-difluoro-1-(4-(trifluoromethoxy)phenyl)ethyl)-7-fluoro-N-methylimidazo[1,5-a]quinoxaline-8-carboxamide], less than 100 nM.
In the case of `CN(C(=O)c1ccc2nc(N)c3cncn3c2c1)[C@@H](c1ccc(C(F)(F)F)cc1F)C(F)F` [Fb-14, (S)-4-amino-N-(2,2-difluoro-1-(2-fluoro-4-(trifluoromethyl)phenyl)ethyl)-N-methylimidazo[1,5-a]quinoxaline-8-carboxamide], the CC50 was less than 100 nM.
Still for that read-out and setting: to `CCN(C(=O)c1ccc2nc(N)c3cncn3c2c1)[C@@H](c1ccc(C(F)(F)F)cc1F)C(F)F` [Fb-15, (S)-4-amino-N-(2,2-difluoro-1-(2-fluoro-4-(trifluoromethyl)phenyl)ethyl)-N-ethylimidazo[1,5-a]quinoxaline-8-carboxamide] belongs less than 100 nM.
Still for that read-out and setting: to `CC(=O)N(C)N(Cc1ccn(-c2ccc(F)cc2F)n1)C(=O)c1cc2c(cc1F)nc(N)c1cncn12` [Fb-16, N′-acetyl-4-amino-N-((1-(2,4-difluorophenyl)-1H-pyrazol-3-yl)methyl)-7-fluoro-N′-methylimidazo[1,5-a]quinoxaline-8-carbohydrazide] belongs 100 to 1000 nM; to `CC(=O)N(C)N(Cc1ccc(C(F)(F)F)cc1Cl)C(=O)c1ccc2nc(N)c3cncn3c2c1` [Fb-17, N′-acetyl-4-amino-N-(2-chloro-4-(trifluoromethyl)benzyl)-N′-methylimidazo[1,5-a]quinoxaline-8-carbohydrazide], less than 100 nM; to `[2H]C([2H])([2H])N(C(=O)c1cc2c(cc1F)nc(N)c1cncn12)[C@@H](c1ccc(C(F)(F)F)cc1F)C(F)F` [Fb-18, (S)-4-amino-N-(2,2-difluoro-1-(2-fluoro-4-(trifluoromethyl)phenyl)ethyl)-7-fluoro-N-(methyl-d3)imidazo[1,5-a]quinoxaline-8-carboxamide], less than 100 nM.
As to `CC1(C)CN(C(=O)c2cc3c(cc2F)nc(N)c2cncn23)CC1c1ccccc1` (stereo not drawn) [Ff-2, (4-amino-7-fluoroimidazo[1,5-a]quinoxalin-8-yl)(3,3-dimethyl-4-phenylpyrrolidin-1-yl)methanone], the half-maximal cytotoxic concentration (CC50) lay within 100 to 1000 nM.
Same read-out and setting: for `Nc1nc2cc(F)c(C(=O)N3CC4CC4(c4ccc(C(F)(F)F)cc4)C3)cc2n2cncc12` (stereo not drawn) [Ff-3, (4-amino-7-fluoroimidazo[1,5-a]quinoxalin-8-yl)(1-(4-(trifluoromethyl)phenyl)-3-azabicyclo[3.1.0]hexan-3-yl)methanone] the value was more than 1000 nM.
In the case of `CN(C(=O)c1ccc2nc(N)c3cncn3c2c1)C1CCc2nc(Cl)sc21` (stereo not drawn) [Ff-15, 4-amino-N-(2-chloro-5,6-dihydro-4H-cyclopenta[d]thiazol-6-yl)-N-methylimidazo[1,5-a]quinoxaline-8-carboxamide], the CC50 is more than 1000 nM.
As to `CN(C(=O)c1cc2c(cc1F)nc(N)c1cncn12)C1CCc2nc(Cl)sc21` (stereo not drawn) [Ff-16, 4-amino-N-(2-chloro-5,6-dihydro-4H-cyclopenta[d]thiazol-6-yl)-7-fluoro-N-methylimidazo[1,5-a]quinoxaline-8-carboxamide], the CC50 lay in the range of 100 to 1000 nM.
Same read-out and setting: for `CN(Cc1ccc(F)cc1Cl)C(=O)c1ccc2nc(N)c3cncn3c2c1` [Ff-30, 4-amino-N-(2-chloro-4-fluorobenzyl)-N-methylimidazo[1,5-a]quinoxaline-8-carboxamide] the value was more than 1000 nM; for `CN(Cc1ccc(F)cc1Cl)C(=O)c1cc2c(cc1F)nc(N)c1cncn12` [Ff-31, 4-amino-N-(2-chloro-4-fluorobenzyl)-7-fluoro-N-methylimidazo[1,5-a]quinoxaline-8-carboxamide], 100 to 1000 nM; for `Nc1nc2cc(F)c(C(=O)N3CCOC[C@@H]3c3ccc(C(F)(F)F)cc3)cc2n2cncc12` [Ff-38, (S)-(4-amino-7-fluoroimidazo[1,5-a]quinoxalin-8-yl)(3-(4-(trifluoromethyl)phenyl)morpholino)methanone], less than 100 nM.
On the same count and under the same terms, to `CN(C(=O)c1cc2c(cc1F)nc(N)c1cncn12)C1COCc2cc(C(F)(F)F)ccc21` (stereo not drawn) [Ff-39, 4-amino-7-fluoro-N-methyl-N-(7-(trifluoromethyl)isochroman-4-yl)imidazo[1,5-a]quinoxaline-8-carboxamide] belongs less than 100 nM.
The same measure, in the same setting: for `CN(C(=O)c1cc2c(cc1F)nc(N)c1cncn12)C1CCOc2cc(C(F)(F)F)ccc21` (stereo not drawn) [Ff-40, 4-amino-7-fluoro-N-methyl-N-(7-(trifluoromethyl)chroman-4-yl)imidazo[1,5-a]quinoxaline-8-carboxamide] the value was 100 to 1000 nM; for `Nc1nc2cc(F)c(C(=O)N3CCCC4OCc5cc(C(F)(F)F)ccc5C43)cc2n2cncc12` (stereo not drawn) [Ff-43, (4-amino-7-fluoroimidazo[1,5-a]quinoxalin-8-yl)(8-(trifluoromethyl)-2,3,4,4a,6,10b-hexahydro-1H-isochromeno[4,3-b]pyridin-1-yl)methanone], less than 100 nM; for `Cn1cc(N(Cc2ccc(C(F)(F)F)cc2F)C(=O)c2cc3c(cc2F)nc(N)c2cncn23)cn1` [Ff-45, 4-amino-7-fluoro-N-(2-fluoro-4-(trifluoromethyl)benzyl)-N-(1-methyl-1H-pyrazol-4-yl)imidazo[1,5-a]quinoxaline-8-carboxamide], less than 100 nM.
For `Cn1cc(N(Cc2ccc(C(F)(F)F)cn2)C(=O)c2cc3c(cc2F)nc(N)c2cncn23)cn1` [Ff-46, 4-amino-7-fluoro-N-(1-methyl-1H-pyrazol-4-yl)-N-((5-(trifluoromethyl)pyridin-2-yl)methyl)imidazo[1,5-a]quinoxaline-8-carboxamide], the CC50 was less than 100 nM.

The record behind these values is patent publication US12448388B2, “PRMT5 inhibitors and uses thereof” (Gilead Sciences, Inc., priority 2023, dated 2025).
